Experiments:
[1] = test system: CT-DNA; assay: Spectrofluorimetric titration with CT-DNA (Stern-Volmer and binding constants); set-up: species or system calf; details: from F0/F-1 vs [DNA]; Tris-HCl buffer pH 7.2
Protocol: The DNA binding properties of compounds 8a–8j were evaluated based on their affinity or interaction with CT-DNA, measured with fluorescence spectrometric titration.
The calibration curve for determination of DNA was constructed by adding different proportion of DNA to a 2.0 × 10^−3 M compound 8j solution (pH = 7.2 Tris-HCl buffer). […] [Q] is the concentration of quencher. KSV is the Stern-Volmer constant and KQ is the bimolecular quenching rate constant. τ0 is the lifetime of the fluorophore in the absence of quencher and for most biomolecules τ0 is about 10^−8 s. The Stern-Volmer constant, KSV, for compound 8j has been determined from the plot of F0/F-1 vs. [DNA] (see Figure 2) and found to be 5.11 × 10^2 M^−1.
When small molecules binding independently to a set of equivalent sites on a macromolecule, the equilibrium between free and bound molecules is given by the equation [28]: (2) lg (F0/F-1) = lgKb + nlg[Q] where Kb and n are the binding constant and the number of binding sites, respectively, which could be got from the curve of lg(F0/F-1) vs. lg[Q]. The plot of lg(F0/F-1) vs. lg[DNA] has been shown in Figure 3 for compound 8j and indicates a simple binding process for the compound.
All fluorescence experiments were carried out on a Perkin-Elmer LS50B luminescence spectrometer. Fluorescence spectra were measured at rt using quartz cells of 1cm path. To the solutions of the drugs (2.0 × 10^−3 M) in 2.5 mL Tris-HCl buffer (pH = 7.2) were added aliquots of CT-DNA (2.0 × 10^−3 M) solution containing drugs (2.0 × 10^−3 M) in 2.5 mL Tris-HCl buffer (pH = 7.2). This operation ensured that the concentration of CT-DNA increased gradually from 0 to 360 µM, while the concentrations of drugs were kept constant. The mixing was achieved by stirring for 10min. Then, the corresponding fluorescence spectra were measured (ex 325 nm, ex/em 1.5 nm/1.5 nm). Binding constants were derived from the modified.

[2] = test system: HUVEC (Human Umbilical Vein Endothelial Cells); assay: MTT cytotoxicity assay, HUVEC normal cells; type: cell-based; details: no irradiation, mean ± SD of three experiments
Protocol: (§1) Cell Lines. The following in vitro human cancer cell lines were used: HCT-116 (Human colorectal cells), human KB (human nasopharyngeal carcinoma cells), MGC-803 (human lung adenocarcinoma cell line), HUVEC (Human Umbilical Vein Endothelial Cells). The cell lines (HCT-116, KB, MGC-803 and HUVEC) were purchased from the Cell Resource Center of Shanghai Institutes for Biological Sciences, the Academy of Sciences of China.
(§2) Cell Culture. HCT-116, human KB, MGC-803 and HUVEC cells were cultured in Dulbecco Modified Eagle Medium (DMEM; HyClone, Los Angeles, CA, USA), containing 4.0 mM L-Glutamine and 4500 mg/L Glucose, supplemented with 10% (v/v) foetalbovine serum (FBS; HyClone). The cell culturemedia was supplemented with penicillin/streptomycin at 100 Units/mL as adherent monolayers. Cell cultures were kept in a humidified incubator with 5% CO2 at 37 °C. Stock solutions were prepared in dimethyl sulfoxide (DMSO) and further dilutions were made with fresh culture medium. The concentration of DMSO in the final culture medium was 1%, which had no effect on the cell viability.
(§3) MTT Assay. Chemosensitivity was assessed using 3-(4,5-dimethylthiazol-2-yl)-2,5-diphenyl tetrazolium bromide (MTT) assay. Briefly, exponentially growing HCT-116 (3000–4000 cells/well), human KB (2000–3000 cells/well) and MGC 803 (2000–3000 cells/well) were seeded into 96-well plates and treated with indicated concentrations of samples for 48 h, and then […] of MTT (10 mg/mL) was added. After incubation for 4 h at 37 °C, the purple formazan crystals (i.e., a reduced form of MTT) generated from viable cells were dissolved by adding 100 μL DMSO in each well. The plates were swirled gently for 10 min to dissolve the precipitate, and quantified by measuring the optical density (OD) of the plates at a wavelength of 490 nm on plate reader (TECAN infinite M1000). Each concentration was repeated in three wells and the same experimental conditions were provided for all compounds and MTT analysis was repeated three times for each cell line.

[3] = test system: human KB (human nasopharyngeal carcinoma cells); assay: MTT cytotoxicity assay, human KB; type: cell-based; details: Homo sapiens, light or radiation study, 48 h, no irradiation, mean ± SD of three experiments
Protocol: as §1, §2, §3

[4] = test system: Bax, Bcl-2, cytochrome c, caspase-9 and caspase-3 in HCT-116 cells; assay: Western blot of apoptosis-related proteins; type: cell-based, human
Excerpt: To confirm the molecular mechanisms involved in the observed apoptosis alterations, we investigated the effects of compound 8j on the expression of proteins important for mitochondria mediated apoptosis. Apoptosis occurs through two different pathways, that is the intrinsic and extrinsic pathways. Intrinsic pathway involves mitochondria that play a pivotal role in apoptosis, whereas extrinsic pathway is mediated by cell death receptors such as Fas, TNF α after receiving the death signal. It is well-known that the intrinsic pathway is regulated by the Bcl-2 family of pro- and anti- apoptotic proteins, which stimulate the permeabilization of the mitochondrial outer membrane and cytochrome c released into the cytosol, promoting in the activation of the caspase cascade and the induction of apoptotic cell death. […] Then, the roles of important caspases (caspase-9 and caspase-3) were investigated. […] Thus, compound 8j induced HCT-116 cells apoptosis might decrease the activation of Bcl-2 and stimulate its downstream proteins which are associated with the mitochondria-dependent apoptotic pathway.
Figure 7 Effect of compound 8j on cytochrome c release and levels of Bcl-2, Bax, Caspase-9 and Caspase-3. Equal amount of protein was loaded on SDS-PAGE gel for western blot analysis as described in experimental section. β-actin was used as an internal control.

[5] = HCT-116, vs control cells, dose-dependent

| Compound | KSV (Stern-Volmer constant) [1] | IC50 [2] | IC50 ([2]; Homo sapiens, HUVEC, light or radiation study) | IC50 [3] | Cytochrome c release ([4]; HCT-116, cytosol) | Levels of caspase-3 protein ([4]; HCT-116, vs control) | Levels of caspase-9 protein ([4]; HCT-116, vs control) | Expression of Bcl-2 [4, 5] | Levels of Bax [4, 5] |
| --- | --- | --- | --- | --- | --- | --- | --- | --- | --- |
| CCOP(=O)(OCC)C(NC(=O)CCOc1ccc2c(C)cc(=O)oc2c1)c1cccc(Br)c1 (stereo not shown) [Compound 8f, Diethyl(3-(4-methyl-2-oxo-2H-chromen-7-yloxy)propanamido)(3-bromophenyl)methylphospho-nate] | 412 M⁻¹ | > 100 µM | – | – | – | – | – | – | – |
| CCOP(=O)(OCC)C(C)(NC(=O)CCOc1ccc2c(C)cc(=O)oc2c1)c1ccccc1 (stereo not shown) [Compound 8j, Diethyl 1-(3-(4-methyl-2-oxo-2H-chromen-7-yloxy)propanamido)-1-phenylethylphosphonate] | 511 M⁻¹ | – | > 100 µM | 80 nM | accumulation of cytochrome c in the cytosol | marked increase | marked increase | decrease | significant increase |

— publication PMC6331810, “Novel Coumarin-Containing Aminophosphonatesas Antitumor Agent: Synthesis, Cytotoxicity, DNA-Binding and Apoptosis Evaluation” (Molecules, 2015)
